The values below come from patent US20210401863A1, “TREATMENT AND PREVENTION OF NEISSERIA GONORRHOEAE INFECTION USING CMP-ACTIVATED NONULOSONATE ANALOG COMPOUNDS” (NATIONAL RESEARCH COUNCIL OF CANADA, priority 2015, published 2021).

The target of assay [1] is T1, gonococcal LOS sialyltransferase (Lst) (Neisseria gonorrhoeae, UniProt P72074).
T1 construct: CMP-KDN served as a substrate for gonococcal Lst in the context of live bacteria; endogenous in cells; host or cells: N. gonorrhoeae F62 ΔlgtD (live bacteria)
Conditions: from U.S. patent application Ser. No. 14/627,396; cited from earlier work.

The subject of assay [2] is N. gonorrhoeae F62 ΔlgtD. Conditions: from U.S. patent application Ser. No. 14/627,396; cited from earlier work.
The test system of the next assay is purified human FH. The conditions noted are these: from U.S. Pat. No. 9,765,106 / Ser. No. 14/627,396; cited from earlier work.
The target of assay [3] is T1, gonococcal LOS sialyltransferase (Lst). In words: mAb 3F11 binding by flow cytometry (incorporation of NulO on LNnT LOS by Lst). The format is cell-based, N. gonorrhoeae F62 ΔlgtD. The conditions noted are these: F62 ΔlgtD grown in media with 20 μg/mL CMP-NulO. The procedure: FIG. 1: CMP-KDN serves as a substrate for gonococcal LOS and incorporation of KDN on gonococcal lacto-N-neotetraose LOS enhances factor H (FH) binding. A. Incorporation of KDN by gonococci. Gonococcal strain F62 ΔlgtD (expresses lacto-N-neotetraose (LNnT) from Hepl) was grown in media containing CMP-KDN (20 μg/mL) and binding of mAb 3F11 was measured by flow cytometry. mAb 3F11 binds only to […] LNnT; substitution of the terminal Gal of LNnT, for example with a NulO, will decrease mAb 3F11 binding. Approximately 5×10^7 bacteria were incubated with mAb 3F11 tissue culture supernatants for 15 minutes at 37° C. Binding of mAb 3F11 was disclosed with anti-mouse IgM FITC (Sigma; dilution of 1:100). Bacteria grown in CMP-Neu5Ac or in media alone were used as positive and negative controls for sialylation, respectively. A representative histogram is shown in the upper panel. […] B. Factor H (FH) binding to gonococci grown in CMP-KDN. Approximately 5×10^7 bacteria grown in media alone (no sialic acid), media plus CMP-Neu5Ac (20 μg/mL; positive control for FH binding) or in media containing CMP-KDN (20 μg/mL) were incubated with purified human FH (20 μg/mL) in HBSS** for 15 minutes at 37° C. and bound FH was detected with affinity isolated goat anti-human FH followed by anti-goat IgG FITC (Sigma; 1:100 dilution). A representative histogram is shown in the upper panel.
FIG. 3: CMP-KDN7N3 serves as a substrate for gonococcal Lst resulting in incorporation of KDN7N3 on gonococcal lacto-N-neotetraose (LNnT) LOS—Incorporation of KDN7N3 by gonococci. Gonococcal strain F62ΔlgtD (expresses lacto-N-neotetraose (LNnT) from Hepl) was grown in media containing CMP-KDN7N3 (20 μg/mL) and binding of mAb 3F11 was measured by flow cytometry. mAb 3F11 binds only to […] LNnT; substitution of the terminal Gal of LNnT, for example with a NulO, will decrease mAb 3F11 binding. Approximately 5×10^7 bacteria were incubated with mAb 3F11 tissue culture supernatants for 15 minutes at 37° C. Binding of mAb 3F11 was disclosed with anti-mouse IgM FITC (Sigma; dilution of 1:100). […]
(In general: Flow cytometry measures light scatter and fluorescence of single cells or particles in a stream.)

For assay [4], the system named is N. gonorrhoeae F62 ΔlgtD. The format is cell-based, Neisseria gonorrhoeae. Conditions: for % survival in 3.3% serum / % survival in 10% serum: Table 5. The protocol:
Generally, bacteria (F62 ΔlgtD) grown overnight on chocolate agar plates were suspended in gonococcal liquid media supplemented with IsoVitaleX [29] that contained specified concentrations of the CMP-nonulosonate. Bacteria were then incubated at 37° C. for the period specified in each experiment.
Serum bactericidal assays were performed as follows, similar to methods outlined in [32,33] and in U.S. Pat. No. 9,765,106. Bacteria were harvested from an overnight culture on chocolate agar plates and ˜10^5 CFU of Ng were grown in liquid media containing the concentrations of CMP-NuIO as specified for each experiment. Bacteria were diluted in Morse A and ˜2000 CFU of Ng F62 ΔlgtD were incubated with NHS (concentration specified for each experiment). The final reaction volumes were maintained at 150 μL. Aliquots of 25 μL of reaction mixtures were plated onto chocolate agar in duplicate at the beginning of the assay (t0) and again after incubation at 37° C. for 30 minutes (t30). Survival was calculated as the number of viable colonies at t30 relative to t0.
Addition of a terminal Neu5Ac residue to the LNnT LOS of N. gonorrhoeae that occurs in vivo or following the addition of CMP-Neu5Ac to growth media results in resistance to complement-dependent killing. We next determined the effects of LNnT incorporation of KDN on the ability of N. gonorrhoeae F62 ΔlgtD to resist complement-dependent killing by normal human sera at concentrations of 3.3% or 10%. Bacteria were grown either in media alone, or media supplemented with 20 μg/mL of CMP-Neu5Ac or CMP-KDN. In addition, CMP-NulO competition experiments were also performed with CMP-Neu5Ac, CMP-Leg5Ac7Ac and CMP-KDN at CMP-NulO concentrations of either 20 μg/mL or 2 μg/mL as indicated, where the second CMP-NulO was added 15 minutes after the first (Table 1 below). To note, these CMP-NulO competition experiments are a method to examine the ability of select CMP-NulOs to counter the enhanced serum resistance due to CMP-Neu5Ac addition, providing information on their therapeutic potential (as any potential therapeutic will be required to compete with CMP-Neu5Ac in vivo).

The next assay concerns N. gonorrhoeae H041. In words: BALB/c mouse vaginal colonization model. The conditions noted are these: 10 μg intravaginally daily; Premarin treated BALB/c mice. Type of assay: in vivo. The procedure: FIG. 2: Female BALB/c mice 5-6 weeks of age (Jackson Laboratories) in the diestrus phase of the estrous cycle were started on treatment (that day) with 0.5 mg of Premarin (Pfizer) given subcutaneously on each of three days; −2, 0 and +2 days (before, the day of and after inoculation) to prolong the estrus phase of the cycle and promote susceptibility to N. gonorrhoeae infection. Antibiotics (vancomycin, colistin, neomycin, trimethoprim and streptomycin) that were ineffective against N. gonorrhoeae were also used to reduce competitive microflora. Mice (n=40) were then infected with 10^6 CFU of strain H041. Three groups of mice (n=10/group) were treated with 10 μg intravaginally daily (first dose was administered 30 minutes before the introduction of bacteria) with one of the following CMP-NulOs in normal saline: CMP-Leg5Ac7Ac, CMP-Neu5Ac9Az or CMP-KDN. A fourth group (n=10) was given saline (vehicle control). Vaginal swabs were obtained daily from each animal, serially diluted and plated on chocolate agar containing vancomycin, colistin, neomycin, trimethoprim and streptomycin (VCNTS) to quantify bacterial loads. A. Median time to clearance was estimated using Kaplan-Meier survival curves; the times to clearance were compared between groups using a log-rank test. P<0.0001 for the control versus each of the treatment groups. Time to clearance between each of the treatment groups was similar (P>0.05). B. The mean area under the curve (log10 CFU vs. time) was computed for each mouse to estimate the bacterial burden over time (cumulative infection); the means under the curves were compared between groups using the Kruskal-Wallis nonparametric rank sum test because distributions were skewed or kurtotic. Groups were compared using Dunn's multiple comparison test. ****, P<0.0001; **, P<0.01; *, P<0.05. The differences among the groups that received CMP-NulOs were not significant.
The mouse model experiments and statistical analysis were conducted as described in the art and in U.S. Pat. No. 9,765,106. […]

Where two headings read alike, the source gives them in different places.

T1 sequence (P72074 whole entry): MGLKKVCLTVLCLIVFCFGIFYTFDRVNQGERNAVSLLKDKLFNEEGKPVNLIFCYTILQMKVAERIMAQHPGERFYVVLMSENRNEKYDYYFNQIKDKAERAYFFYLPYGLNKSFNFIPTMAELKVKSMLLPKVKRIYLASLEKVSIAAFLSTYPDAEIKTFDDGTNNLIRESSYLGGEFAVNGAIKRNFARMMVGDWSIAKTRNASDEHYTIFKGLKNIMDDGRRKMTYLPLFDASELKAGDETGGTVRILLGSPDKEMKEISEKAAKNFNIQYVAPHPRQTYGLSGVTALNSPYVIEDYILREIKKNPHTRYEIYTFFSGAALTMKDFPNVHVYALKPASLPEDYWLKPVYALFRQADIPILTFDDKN

On to `CO[C@H](CO)[C@@H](O)[C@@H]1O[C@@](OP(=O)(O)OC[C@H]2O[C@@H](n3ccc(N)nc3=O)[C@H](O)[C@@H]2O)(C(=O)O)C[C@H](O)[C@H]1NC(=O)CO` [CMP-Neu5Gc8Me], for which the “substrate for gonococcal LOS sialyltransferase (Lst) (earlier results)” value (“substrate … (earlier results)” below) in assay [1] is given as “can serve as substrates for gonococcal LOS sialyltransferase (Lst)”. Also, the “serum resistance / serum-mediated killing (earlier results)” value with N. gonorrhoeae F62 ΔlgtD [2] is on record as “enhanced serum-mediated killing”. Moreover, the “fH binding to bacteria (earlier results)” value in the assay on purified human FH is reported as “not enhance fH binding above levels seen with an unsialylated F62 ΔlgtD control”.
In the case of `CC(=O)NC1C(O)CC(OP(=O)(O)OCC2OC(n3ccc(N)nc3=O)C(O)C2O)(C(=O)O)OC1C(O)C(O)COC(C)=O` (stereo not drawn) [CMP-Neu5Ac9Ac], the “substrate … (earlier results)” value in assay [1] is “can serve as substrates for gonococcal LOS sialyltransferase (Lst)”. In the assay on N. gonorrhoeae F62 ΔlgtD [2], the “serum resistance / serum-mediated killing (earlier results)” value is “enhanced serum-mediated killing”.
With `[N-]=[N+]=N[C@@H](C1O[C@](OP(=O)(O)OC[C@H]2O[C@@H](n3ccc(N)nc3=O)C(O)C2O)(C(=O)O)CC(O)[C@H]1O)[C@H](O)CO` (stereo partly drawn) [CMP-KDN7N3, cytidine 5′-monophospho-3,7-dideoxy-7-azido-D-glycero-D-galacto-nonulosonic acid], in assay [3], the “binding of mAb 3F11 (use as substrate by gonococcal Lst)” value is listed as “could be utilized by gonococcal LOS sialyltransferase (Lst)”. In addition, the “serum sensitivity (in words)” value in the assay on N. gonorrhoeae F62 ΔlgtD [4] (CMP-NulO alone, 10% serum) is on record as “resulted in serum sensitivity”. Moreover, the entries for the “% survival in 3.3% serum” value with N. gonorrhoeae F62 ΔlgtD [4] (CMP-NulO 20 μg/mL) and in the assay on N. gonorrhoeae F62 ΔlgtD [4] (CMP-NulO 100 μg/mL) were 125.60% and 123.67%, respectively. Besides, the “% survival in 10% serum” value with N. gonorrhoeae F62 ΔlgtD [4] (CMP-NulO 20 μg/mL, 10% serum) was found to be 33.92%; in the assay with N. gonorrhoeae F62 ΔlgtD [4] (CMP-NulO 100 μg/mL, 10% serum), 22.52%.
On to `Nc1ccn([C@@H]2O[C@H](COP(=O)(O)O[C@@]3(C(=O)O)C[C@H](O)[C@@H](NC(=O)CO)[C@H]([C@H](O)[C@H](O)CO)O3)[C@@H](O)[C@H]2O)c(=O)n1` [CMP-Neu5Gc], for which the “substrate … (earlier results)” value in assay [1] is “can serve as substrates for gonococcal LOS sialyltransferase (Lst)”. Moreover, the “serum resistance / serum-mediated killing (earlier results)” value in the assay with N. gonorrhoeae F62 ΔlgtD [2] was “able to simulate the high-level serum resistance reported for CMP-Neu5Ac”. Also, the “fH binding to bacteria (earlier results)” value with purified human FH is listed as “high level of fH binding to bacteria”.
Regarding `CC(=O)N[C@H]1[C@H]([C@H](O)[C@H](O)CN=[N+]=[N-])OC(OP(=O)(O)OC[C@H]2O[C@@H](n3ccc(N)nc3=O)[C@H](O)[C@@H]2O)(C(=O)O)C[C@@H]1O` (stereo partly drawn) [CMP-Neu5Ac9Az], the “substrate … (earlier results)” value in assay [1] is on record as “can serve as substrates for gonococcal LOS sialyltransferase (Lst)”. Also, the “serum resistance / serum-mediated killing (earlier results)” value with N. gonorrhoeae F62 ΔlgtD [2] is listed as “enhanced serum-mediated killing”. The “fH binding to bacteria (earlier results)” value in the assay on purified human FH is given as “not enhance fH binding above levels seen with an unsialylated F62 ΔlgtD control”. Moreover, the “attenuation of N. gonorrhoeae H041 infection” value in the assay on N. gonorrhoeae H041 is on record as “significantly attenuated”.
